{
  "source": "patent US12636283B2",
  "about": "“Inhibition of PRC2 subunits to treat eye disorders” (FONDATION ASILE DES AVEUGLES, priority 2018, dated 2026)",
  "key": {"[1]": {"target": "T1, EZH2 (Mus musculus, UniProt Q61188)", "T1 construct": "endogenous in cells; host or cells: Mouse Embryonic Fibroblasts (MEF)", "T1 sequence (Q61188 whole entry)": "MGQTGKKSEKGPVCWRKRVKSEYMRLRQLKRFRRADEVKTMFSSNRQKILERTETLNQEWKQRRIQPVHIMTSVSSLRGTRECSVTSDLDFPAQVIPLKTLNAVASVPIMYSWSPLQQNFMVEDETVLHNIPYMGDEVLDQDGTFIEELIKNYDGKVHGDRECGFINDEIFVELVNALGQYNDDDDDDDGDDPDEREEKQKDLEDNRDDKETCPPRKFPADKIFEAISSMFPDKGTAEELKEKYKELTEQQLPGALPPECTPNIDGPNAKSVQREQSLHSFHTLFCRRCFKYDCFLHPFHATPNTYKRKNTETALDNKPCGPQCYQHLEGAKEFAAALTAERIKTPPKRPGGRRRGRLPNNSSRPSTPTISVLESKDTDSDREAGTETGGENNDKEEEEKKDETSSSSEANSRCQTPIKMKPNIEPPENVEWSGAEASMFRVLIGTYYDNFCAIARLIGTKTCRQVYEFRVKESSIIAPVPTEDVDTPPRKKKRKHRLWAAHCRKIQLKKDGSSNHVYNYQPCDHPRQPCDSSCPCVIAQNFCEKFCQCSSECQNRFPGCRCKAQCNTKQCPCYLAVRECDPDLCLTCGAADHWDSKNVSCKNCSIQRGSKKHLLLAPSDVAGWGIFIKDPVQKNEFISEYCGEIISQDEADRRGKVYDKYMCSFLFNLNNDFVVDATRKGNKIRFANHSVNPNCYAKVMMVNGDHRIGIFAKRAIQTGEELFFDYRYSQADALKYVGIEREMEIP", "T1 sequence (Q921E6 whole entry partner)": "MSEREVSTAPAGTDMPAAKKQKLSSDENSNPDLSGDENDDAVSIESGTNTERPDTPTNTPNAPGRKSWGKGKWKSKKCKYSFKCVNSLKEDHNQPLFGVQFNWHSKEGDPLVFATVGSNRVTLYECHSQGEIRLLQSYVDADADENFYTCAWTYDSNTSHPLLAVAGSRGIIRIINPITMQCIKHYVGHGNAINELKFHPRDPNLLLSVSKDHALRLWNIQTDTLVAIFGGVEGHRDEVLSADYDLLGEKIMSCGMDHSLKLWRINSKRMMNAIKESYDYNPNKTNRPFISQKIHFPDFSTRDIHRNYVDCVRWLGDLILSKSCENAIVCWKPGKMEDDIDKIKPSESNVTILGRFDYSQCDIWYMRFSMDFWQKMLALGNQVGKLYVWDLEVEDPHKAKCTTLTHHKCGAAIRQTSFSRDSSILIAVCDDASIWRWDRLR", "T1 sequence (Q80U70 whole entry partner)": "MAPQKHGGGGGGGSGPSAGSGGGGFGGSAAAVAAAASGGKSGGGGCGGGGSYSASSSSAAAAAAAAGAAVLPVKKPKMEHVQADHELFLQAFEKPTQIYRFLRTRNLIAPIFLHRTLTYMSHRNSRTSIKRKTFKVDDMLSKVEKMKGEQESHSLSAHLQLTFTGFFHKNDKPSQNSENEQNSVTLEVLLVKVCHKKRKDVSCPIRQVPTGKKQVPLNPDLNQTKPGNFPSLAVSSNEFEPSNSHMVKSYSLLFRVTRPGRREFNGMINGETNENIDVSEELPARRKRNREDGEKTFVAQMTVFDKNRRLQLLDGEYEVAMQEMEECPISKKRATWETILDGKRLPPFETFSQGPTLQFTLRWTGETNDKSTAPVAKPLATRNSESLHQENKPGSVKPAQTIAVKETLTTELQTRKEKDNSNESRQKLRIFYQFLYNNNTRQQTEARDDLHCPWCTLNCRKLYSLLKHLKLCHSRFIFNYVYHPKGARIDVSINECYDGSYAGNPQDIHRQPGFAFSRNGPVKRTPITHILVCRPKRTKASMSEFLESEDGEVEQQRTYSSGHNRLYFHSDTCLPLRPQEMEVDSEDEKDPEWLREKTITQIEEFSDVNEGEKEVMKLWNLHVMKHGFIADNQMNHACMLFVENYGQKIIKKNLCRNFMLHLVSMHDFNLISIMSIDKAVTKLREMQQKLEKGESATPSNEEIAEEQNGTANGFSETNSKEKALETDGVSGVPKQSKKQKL", "T1 sequence (Q60972 whole entry partner)": "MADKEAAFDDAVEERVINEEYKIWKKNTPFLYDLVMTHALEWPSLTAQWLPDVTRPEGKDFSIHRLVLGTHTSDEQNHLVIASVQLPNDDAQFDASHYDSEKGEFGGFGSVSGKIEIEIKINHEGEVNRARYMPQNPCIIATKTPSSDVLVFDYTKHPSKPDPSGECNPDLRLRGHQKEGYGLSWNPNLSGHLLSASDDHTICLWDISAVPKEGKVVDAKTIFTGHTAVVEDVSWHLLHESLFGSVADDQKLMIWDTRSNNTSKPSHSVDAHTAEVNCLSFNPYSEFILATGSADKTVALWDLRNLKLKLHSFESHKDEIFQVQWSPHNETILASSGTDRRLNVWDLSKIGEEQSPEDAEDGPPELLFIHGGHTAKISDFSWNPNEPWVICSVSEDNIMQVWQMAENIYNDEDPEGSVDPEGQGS", "assay": "UNC1999 treatment of mouse embryonic fibroblasts, H3K27me3 immunostaining and western blot", "assay_type": "cell-based", "method": "Mouse Embryonic Fibroblasts (MEF) were maintained in culture in Dulbecco's Modified Eagle's Media (DMEM), 10% fetal bovine serum (FBS) with penicillin and streptomycin, at 37° C., 5% CO2. The day before treatment, the cells were trypsinized and seeded at a density of 50,000 cells on poly-ornithine coated coverslips in 24 well plates. The next day, the media was discarded and fresh media containing various doses of the UNC1999 inhibitor dissolved in dimethyl sulfoxide (DMSO), ranging from 1 μM to 50 μM was added in triplicates, then incubated back at 37° C. for 48H. Control cells received the respective dimethyl sulfoxide DMSO used with the UNC1999. The coverslips were washed 3 times with pre-warmed phosphate buffer saline (PBS) 1× at room temperature (RT). The cells were fixed with 4% paraformaldehyde (PFA) for 12 min at RT. After two more washes in PBS, the cells were immediately proceeded for immunostaining. For western blot analysis, 200,000 cells were seeded in triplicates in 6 wells plates and treated as above.\nImmunohistochemistry was performed on treated and non-treated slides. The sections were washed 3 times with cooled PBS 1× before being permeabilized with Triton X-100 for 20 min to further allow optimal antibodies-antigens interactions everywhere in the tissue and cells. The sections were blocked for 1 h with buffer containing 3% BSA (w/v), 5% NGS (v/v) in PBS 1× containing 0.3% Triton X-100. Appropriate antibodies dilutions (see list of antibodies with their respective applications in Table 2) were prepared in blocking solution and sufficient amount were laid and transferred to 4° C. over-night. The next day, the antibodies solutions were shed-off and the remaining non-interacting probes were washed off 3 times with PBS 1×. Interacting probes were then detected by applying a solution of appropriate conjugated secondary antibodies Alexa Fluor 488 or Alexa fluor 633 diluted in PBS 1× 1 h at RT. Finally, the nuclei were counterstained with 4′,6-diamidino-2-phenylindole (DAPI) solution prepared in PBS. Alternatively, for difficult to retrieve antigens such as cGMP and CDK4, special conditions were applied: Successful detection of CDK4 requires signal amplification, either with TSA* fluorescein detection kit (PerkinElmer) or 3,3′-diaminobenzidine (DAB) revelation system (Dako) according to providers instructions. The cGMP detection was achieved by permeabilizing the membrane with soft detergent solution (0.1% Triton X-100) and using Tris buffer (TBS) throughout the incubation steps. All the preparations were mounted with Mowiol and measurements were taken using an Olympus BX60 fluorescence microscope or Zeiss confocal microscopy (LSM 510 3.2 software). […]"}, "[2]": {"test_system": "Rd1 mice", "assay": "Intravitreal injection of UNC1999 in PN8 Rd1 mice, H3K27me3 and TUNEL staining of the ONL", "assay_type": "in vivo, mouse", "method": "The UNC1999 inhibitor was supplied as lyophilized powder from commercial source (#SML0778-5MG, SIGMA). The stock solution was prepared in 100% DMSO according to the manufacturer's instructions. Sufficient amount of DMSO was added to the vial to generate a 10 mM stock solution. For optimal injection procedure, we reviewed three different parameters prior to intermediate solution preparation. Firstly, considering the volume of the vitreous of young mice (post-natal day 8, PN08) which is approximately 5.3 μl; the maximum safe amount (1 μl) that could be injected (final volume 6.3 μl) and the calculated effective dose of […] obtained from increasing doses along with cell culture experiments (see below). Therefore, the stock solution was then diluted in physiological buffer (0.9% NaCl) in order to make a 20 μM intermediate solution for subsequent experiments.\n(§1) The compound was delivered by intravitreal injection into the eyeball of PN08 Rd1 littermates. The animals (08 in total) were first anesthetized intraperitoneally (ip) with a mixture of 20 mg/kg Ketamine+300 μg/Kg of Dorbene. After 30 min, the recovery was performed by an ip injection of 300 μg/kg of Alzane. When necessary, the future edge of the eyelid was forced to open and maintained with forceps. The injection needle filled with 20 μM UNC1999 solution was inserted carefully into the vitreous through the sclera. A single dose (1 μl) of the intermediate solution was delivered slowly, leading to a final concentration of 2.5-3 μM, with a corresponding DMSO concentration of 0.0317%. For each animal, one eye received the compound whereas the other eye was injected with the vehicle. The injected animals were kept warmed and benefited from closest inspection until they wake up from anesthesia. 400 μl of 5% glucose and paracetamol were administered subcutaneously and intraperitoneally respectively to help for recovery before transferred back to their normal habits. The mice were sacrificed 4 days post injection and the eyeball excised as described below. Before processing, the eyes were carefully inspected for any sign of cataracts and unexpected lesions. Similarly, a single dose of UNC1999 (solution of 36 μM) was administered by intravitreal injection to 2 months old Fam161a^−/− mice (slow degenerative process), with repeated injection every week. The animal was sacrificed 4 days after the fourth injection.\nThe animals were sacrificed by a 7 min exposure to CO2. The Histology was performed on enucleated eyes. Prior to cryosectioning, the eye globes were excised from the optic nerve and were perforated at the cornea level (a single tiny hole) with 25 G needle and transfer to 4% PFA (w/v) at RT. After 1 h incubation period, the eyes were washed in PBS 1× before being transferred in 30% sucrose over night at 4° C. The eyes were embedded in yazula and frozen at −20° C. and then 14 μm sections were performed with cryostat. The sections were collected on six serial slides for each eye. All quantifications were performed on the most central cryosections including (or surrounding) the optic nerve. Measurements of rows of nuclei were taken at the same geographic area for both dorsal and ventral sides of the retina in all sections and slides analyzed. The data were pooled as a mean for the dorsal or ventral zone of the retina\nThe frozen slides were warmed at RT, rehydrated and washed 3 times with PBS 1×. […]"}, "[3]": {"test_system": "Fam161a-/- mice", "assay": "Repeated weekly intravitreal injection of UNC1999 in Fam161a-/- mice, photoreceptor rows and H3K27me3", "assay_type": "in vivo, mouse", "conditions": "2-month-old Fam161a-/- mice", "method": "as §1\nThe animals were sacrificed by a 7 min exposure to CO2. […] All quantifications were performed on the most central cryosections including (or surrounding) the optic nerve. Measurements of rows of nuclei were taken at the same geographic area for both dorsal and ventral sides of the retina in all sections and slides analyzed. […]\nImmunohistochemistry was performed on treated and non-treated slides. […] Interacting probes were then detected by applying a solution of appropriate conjugated secondary antibodies Alexa Fluor 488 or Alexa fluor 633 diluted in PBS 1× 1 h at RT. […]"}, "[4]": {"test_system": "C57/B16 healthy mice", "assay": "ERG recording of retina function in healthy mice before and one week after intravitreal injection", "assay_type": "in vivo, mouse", "method": "To test whether the UNC1999 dose tested ([…]) has a toxic effect on retina function, the retina activity of control (injected with the vehicle, DMSO) and UNC1999 treated C57/B16 healthy mice was recorded by ERG before and one week after intravitreal injection (FIG. 12). In scotopic condition, the b-wave maximum amplitude baseline of the DMSO treated group was a bit higher than the UNC1999 group one before the injection."}, "[5]": {"conditions": "mouse embryonic fibroblasts, FIG. 7B"}, "[6]": {"conditions": "Rd1 PN8, intravitreal, 2.5 μM final eye concentration, 4 days post injection, vs DMSO treated eye"}, "[7]": {"conditions": "Rd1 eyes injected at PN8, 2.5 μM final eye concentration, vs vehicle (DMSO)"}, "[8]": {"conditions": "intravitreal, weekly, four injections, solution of 36 μM"}},
  "note": "“Also recorded” adds a separate entry of the source.",
  "data": [
    {"smiles": "CCCc1cc(C)[nH]c(=O)c1CNC(=O)c1cc(-c2ccc(N3CCN(C(C)C)CC3)nc2)cc2c1cnn2C(C)C", "note": "[UNC1999]", "values": [
      {"measurement": "H3K27me3 mark by immunocytochemistry labelling", "setting": "[1]; [5]", "value": "robust decreased of the mark"},
      {"measurement": "levels of EZH2", "setting": "[1]; [5]", "value": "slightly affected"},
      {"measurement": "calculated effective dose", "setting": "[1]; obtained from increasing doses along with cell culture experiments", "value": 6, "unit": "µM"},
      {"measurement": "block of endogenous levels of H3K27me3", "setting": "[1]; proliferating mouse embryonic fibroblasts, 2.5 μM, compared to DMSO control", "value": "efficient to block the endogenous levels of H3K27me3"},
      {"measurement": "decline of hyper H3K27me3 signal in the ONL", "setting": "[2]; [6]", "value": 75, "unit": "%"},
      {"measurement": "decrease of number of TUNEL positive cells", "setting": "[2]; [6]", "value": 70, "unit": "%"},
      {"measurement": "H3K27me3 positive cells (in words)", "setting": "[2]; [7]", "value": "marked reduction"},
      {"measurement": "TUNEL positive cells (in words)", "setting": "[2]; [7]", "value": "marked reduction"},
      {"measurement": "retinal degeneration", "setting": "[2]; Rd1 mouse", "value": "markedly delayed retinal degeneration"},
      {"measurement": "levels of H3K27me3 hyper trimethylation, injected vs non-injected side", "setting": "[3]; dorso-ventral axis, 4 days after the last injection", "value": "did not observe any statistical differences; also recorded: no changes were observed"},
      {"measurement": "number of photoreceptor rows in the dorsal compartment", "setting": "[3]; [8]", "value": "No significant difference"},
      {"measurement": "number of photoreceptor rows in the ventral ONL", "setting": "[3]; [8]", "value": "statistical significant preservation"},
      {"measurement": "ERG photopic response vs baseline", "setting": "[4]; 3 cda/s.m^2 stimulation, one week after injection, both DMSO and UNC1999 treated animals", "value": "reduced response"},
      {"measurement": "ERG photopic flicker response, treated vs control group", "setting": "[4]; 5, 10 and 15 Hz, one week after intravitreal injection", "value": "No differences between the control and the treated groups were observed"},
      {"measurement": "ERG flicker response vs baseline", "setting": "[4]; 5 Hz, both treated groups (DMSO and UNC1999)", "value": "a reduction of the response occurred"},
      {"measurement": "ERG flicker response", "setting": "[4]; 15 Hz, all groups", "value": "no differences were observed"},
      {"measurement": "ERG photopic maximum b-wave amplitude, treated vs vehicle group", "setting": "[4]; healthy adult mice, one week after intravitreal injection", "value": "No differences between the two groups were noticed"},
      {"measurement": "ERG scotopic maximum b-wave amplitude", "setting": "[4]; healthy adult mice, one week after intravitreal injection, vs DMSO group and baseline", "value": "no significant differences with the baseline; also recorded: No differences in retina activity"}
    ]}
  ]
}
